Reference: US5134168A, “Phenoxy and phenylthio, amino substituted benzocycloalkane derivatives in the treatment and prevention of drug-resistant protozoal infections” (Merrell Dow Pharmaceuticals Inc., priority 1991, dated 1992)

Assays:
P. falciparum (FCR3) = assay: Enhancement of chloroquine potency: [3H]-hypoxanthine incorporation into chloroquine-resistant P. falciparum (FCR3) in vitro; format: cell-based, Plasmodium falciparum; conditions: chloroquine IC50 with compound at 200 ng/ml as percent of chloroquine-alone IC50
[1] = system: chloroquine-resistant P. falciparum (FCR3); assay: Isobologram analysis of synergism with chloroquine, hypoxanthine incorporation (FIG. 1); format: cell-based, Plasmodium falciparum; conditions: IC50 for hypoxanthine incorporation
Protocol: FIG. 1 illustrates the synergism of 1-(3,4-dichloro-phenoxy)-2,3-dihydro-N,N-dimethyl-1H-Indene-2-methanamine and chloroquine against chloroquine-resistant P. falciparum (FCR3). Isobologram analysis was carried out according to the method of Martin, et al., (1987) Science 235, 899-901 and Berenbaum, (1978) Journal of Infectious Diseases 137, 122-130. […] The X-axis is the IC50 concentration of drug which inhibits hypoxanthine incorporation by 50%) of chloroquine in the absence or presence of 1-(3,4-dichlorophenoxy)-2,3-dihydro-N,N-dimethyl-1H-Indene-2-methanamine while the Y-axis is the IC50 for 1-(3,4-dichlorophenoxy)-2,3-dihydro-N,N-dimethyl-1H-Indene-2-methanamine in the absence or presence of chloroquine.
P. falciparum (clone D6, chloroquine-sensitive; strain FCR3, chloroquine-resistant; and clone W2, multidrug-resistant) was grown in vitro by the method of Trager and Jensen, (1976) Science 193, 673-675.

P. falciparum = conditions: recently reported; by interfering with riboflavin metabolism; cited from earlier work

SMILES | Percent of IC50 of Chloroquine Alone (P. falciparum (FCR3)) [%] | other results
CN(C)C[C@H]1Cc2ccccc2[C@H]1Sc1ccccc1.O=C(O)C(=O)O (relative stereo) [1 0 0 -- --CH2 -- CH3 CH3 S cis, cis-2,3-dihydro-N,N-dimethyl-1-(phenylthio)-1H-indene-2-methanamine, ethanedioate] | 14 | 
CNC[C@@H]1Cc2ccccc2[C@@H]1Oc1ccccc1C(F)(F)F (relative stereo) [1 0 1 O--CF3 --CH2 -- CH3 H O cis, CIS-2,3-dihydro-N-methyl-1-(2-trifluoromethylphenoxy)-H-indene-2-methanamine ethanedioate (1:1)] | 22 | 
CNC[C@H]1Cc2ccccc2[C@H]1Oc1ccccc1OC (relative stereo) [1 0 1 O--OCH3 --CH2 -- CH3 H O --, cis-2,3-dihydro-1-(2-methoxyphenoxy)-N-methyl-1H-indene-2-methanamine] | 13 | 
CN(C)C[C@@H]1Cc2ccccc2[C@@H]1Oc1ccc(Br)cc1 (relative stereo) [1 0 1 p-Br --CH2 -- CH3 CH3 O cis, CIS-1-(4-romophenoxy)-2,3-dihydro-N,N-dimethyl-1H-indene-2-methanamine ethanedioate] | 68 | 
CN(C)C[C@H]1Cc2ccccc2[C@H]1Oc1ccc(C(F)(F)F)cc1.Cl (relative stereo) [1 0 1 p-CF3 --CH2 -- CH3 CH3 O cis, cis-2,3-dihydro-N,N-dimethyl-1-[4-(trifluoromethyl)-phenoxy]-1H-indene-2-methanamine hydrochloride] | 55 | 
CN(C)C[C@H]1Cc2ccccc2[C@H]1Oc1ccc2c(c1)OCO2.O=C(O)C(=O)O (relative stereo) [1 0 2 --OCH2 O-- --CH2 -- CH3 CH3 O cis, CIS 1-(1,3-benzodioxol-5-yloxy)-2,3-dihydro-N,N-dimethyl-1H-indene-2-methanamine ethanedioate (1:1)] | 25 | 
CN(C)C[C@H]1Cc2ccccc2[C@@H]1Oc1ccc(Cl)c(Cl)c1 (relative stereo) [1 0 2 m,p-(Cl)2 --CH2 -- CH3 CH3 O trans] | 43 | 
CN(C)C[C@@H]1Cc2ccccc2[C@H]1Oc1ccc2c(c1)OCO2.O=C(O)C(=O)O (relative stereo) [TRANS 1-(1,3-benzodioxol-5-yloxy)-2,3-dihydro-N,N-dimethyl-1H-indene-2-methanamine ethanedioate (1:1)] | 75 | 
CN(C)CC1Cc2ccccc2C1Oc1ccccc1 (stereo not drawn) [1 0 0 -- --CH2 -- CH3 CH3 O --, 2,3-dihydro-N,N-dimethyl-1-phenoxy-1H-indene-2-methanamine] | 10 | 
CN(C)CC1Cc2ccccc2C1Oc1ccc(Cl)c(Cl)c1 (stereo not drawn) [1-(3,4-dichlorophenoxy)-2,3-dihydro-N,N-dimethyl-1H-Indene-2-methanamine] |  | synergism of the combination with chloroquine [1]: highly synergistic
CN(C)CCC=C1c2ccccc2CCc2ccccc21 [amitryptyline] |  | P. falciparum growth (P. falciparum): suppress P. falciparum growth
CN(C)CCCN1c2ccccc2CCc2ccccc21 [imipramine] |  | P. falciparum growth (P. falciparum): suppress P. falciparum growth
